Assay results as given in US8236794B2, “Treatment of mesothelioma” (Ed. Geistlich Soehne AG fuer Chemische Industrie, priority 2003, dated 2012).
“Also recorded” adds a separate entry of the source.

Columns and labels:
[1] = tested on: human malignant glioma cell line LN-229; test: Cell viability and Fas-ligand mediated apoptosis in glioma cells; assay type: cell-based; conditions: LN-229 cells; for Effect on destruction of cells by Fas-ligand: combined with Fas-ligand
Description: The present invention relates to the ability of methylol transfer agents, such as taurolidine, to induce cell toxicity, and to enhance Fas-ligand mediated apoptosis. Both taurolidine and its congener taurultam enhance the apoptotic effect of Fas-ligand in cancer cells at drug concentrations which per se show practically no effect on cell viability. For example, in the human malignant glioma cell line LN-229 cell viability was reduced directly following incubation with taurolidine or taurultam alone. […] Thus, the use of methylol transfer agents to induce apoptotic cell death provides a means for treating mesothelioma as in the present invention.

malignant mesothelioma = test: Therapy of mesothelioma with taurolidine: single-patient case, two treatment cycles, intravenous plus intrapleural; assay type: in vivo, human
Description: The following is a case involving treatment of an individual for two treatment cycles. Patient: Diagnosis: Malignant mesothelioma two yrs. ago (stage III according to IMIG stadiation) Prior treatments: Treated with CT with Cis-Platinum/Gemcitabine, Local recurrency with pleural effusion. Treated with taurolidine 2%, Two cycles of three weeks with taurolidine both intravenous and intrapleural administration I.V: 4 bottles daily for 5 days for three weeks (2 cycles) I.P: 1 bottle daily for 5 days for three weeks (2 cycles)

[2] = cited from earlier work

Structure (SMILES)	Effect on destruction of cells by Fas-ligand [1]	Cell viability following incubation with compound alone [1]	Main side effects, I.P. (intrapleural) administration (malignant mesothelioma; I.P. 1 bottle taurolidine 2% daily for 5 days for three weeks (2 cycles))	Main side effects, I.V. administration (malignant mesothelioma; I.V. 4 bottles taurolidine 2% daily for 5 days for three weeks (2 cycles))	Side effects obliging discontinuance of the treatment (malignant mesothelioma; I.V. and I.P. administration, 2 cycles)	Clinical response (malignant mesothelioma; same patient and regimen, preliminary response evaluation)	Patient's condition after treatment (malignant mesothelioma; two treatment cycles, I.V. and I.P.)	Water solubility [2]
O=S1(=O)CCN(CN2CCS(=O)(=O)NC2)CN1 [taurolidine, Bis-(1,1-dioxoperhydro-1,2,4-thiadiazinyl-4)methane]	enhanced the destruction of LN-229 cells by Fas-ligand	reduced	Local burning at the site of instillation; also recorded: Thoracic burning of significant grade	Mild local burning at the site of instillation; also recorded: Transient symptomatic hypthension	None	Highly significant reduction of the dyspnea	marked improvement	up to 2%
O=S1(=O)CCNCN1 [taurultam]	enhanced the destruction of LN-229 cells by Fas-ligand	reduced						
